This is an account of results in patent US6969729B2, “Use of isatin derivatives as ion channel activating agents” (Neurosearch A/S, priority 1998, dated 2005).

Usually melting point stands for the temperature of the solid-liquid transition. Compound `O=C1Nc2ccc(Br)cc2C1=NO` [Compound 1a, 5-Bromoisatin 3-oxime] came in with a melting point of 250 to 251 °C.
The value for `CN1C(=O)C(=NO)c2cc(Cl)c(Cl)cc21` [Compound 1b, 5,6-dichloro-1-methylisatin 3-oxime] was 232 to 236 °C.
In the case of `CN1C(=O)C(=NO)c2c1ccc(Cl)c2Cl` [Compound 1d, 4,5-dichloro-1-methylisatin 3-oxime], the melting point was 140 to 142 °C.
The value for `CN1C(=O)C(=NO)c2ccc(Cl)c(Cl)c21` [Compound 1j, 6,7-Dichloro-1-methylisatin 3-oxime] was more than 200 °C; that for `O=C1Nc2c(ccc(F)c2F)C1=NO` [Compound 1o, 6,7-Difluoroisatin 3-oxime] was 263 to 264 °C.
The value for `Cc1ccc2c(c1C)NC(=O)C2=NO` [Compound 1p, 6,7-Dimethylisatin 3-oxime] was 283 to 284 °C.
On to `O=C1Nc2cc(Cl)c(Cl)cc2C1=NO` [Compound 1q, 5,6-Dichloroisatin 3-oxime], for which the melting point lay within 274 to 275 °C.
The same measure for `Cc1c(Cl)ccc2c1NC(=O)C2=NO` [Compound 1u, 6-Chloro-7-methylisatin 3-oxime]: more than 300 °C; for `Cc1c(F)ccc2c1NC(=O)C2=NO` [Compound 1v, 6-Fluoro-7-methylisatin 3-oxime]: 286 °C (dec.); for `COc1c(F)ccc2c1NC(=O)C2=NO` [Compound 1w, 6-Fluoro-7-methoxyisatin 3-oxime]: 268 to 270 °C.
